Measurements reported in the NIST ThermoML archive (doi:10.1021/je900342a).
Numbers after ± are expanded uncertainties.

Columns and labels:
[1] = Crystal; DTA
[2] = Molar enthalpy of transition or fusion; details: Crystal; DSC

Compound | Normal melting temperature [1] | Molar enthalpy of transition or fusion [2]
CCCCCCCCCCCCCCCC(=O)OCC(COC(=O)CCCCCCCCCCCCCCC)OC(=O)CCCCCCCCCCCCCCC [1,2,3-propanetriyl tri(hexadecanoate)] | 67.4 ± 0.5 °C | 38.9 ± 1 kcal/mol
CCCCCCCCCCCCCC(=O)O [tetradecanoic acid] | 53.1 ± 0.5 °C | 10.9 ± 0.287 kcal/mol
CC(C)Cc1ccc(C(C)C(=O)O)cc1 (stereo not given) [ibuprofen] | 74.5 ± 0.5 °C | 
